US8404640B2 (priority 2006, dated 2013)

Assays:
[1] = system: CXCL12 protein expression; experiment: Immunofluorescence microscopy of CXCL12 protein in 5-aza-treated HCT116 cells; assay type: cell-based, human; settings: 2.5 μM 5-aza, 3 days
Protocol: Immunofluorescence microscopy. HCT116 epithelial cells were plated to glass chamber slides and grown for 3-days in untreated or 5-aza containing media. Cells were stained with mouse mAb specific for CXCL12 (clone #79018.111, R&D Systems) or a nonspecific mouse IgG control antibody (BD Pharmingen, San Jose, Calif.). CXCL12 protein and IgG background staining was visualized using Alexa Fluor 594 conjugated goat anti-mouse antibody (Molecular Probes, Eugene, Oreg.). Nuclei were visualized with a DAPI counterstain.

[2] = biological target: T1, Dnmt1 (Homo sapiens, UniProt P26358); experiment: Immunoblot of extractable Dnmt1 in 5-aza-treated HCT116 cells; assay type: cell-based; settings: increasing concentrations of 5-aza
T1 construct: endogenous in cells; host or cells: HCT116 (ATCC CCL-247)
Source text: (§1) Human colorectal carcinoma cell lines. HT29 (HTB-38), HCT116 (CCL-247), Caco2 (HTB-37), T84 (CCL-248) colonic carcinoma cells were purchased from the American Type Culture Collection (ATCC, Rockville, Md.) and maintained as previously described (Smith, J. M., et al. (2005) Am. J. Physiol Gastrointest. Liver Physiol 288, 316-26; Dwinell, M. B., et al. (2001) Gastroenterology 120, 49-59). Dnmt1, Dnmt3b or Dnmt1/Dnmt3b double knockout HCT116 cells were the kind gift of Dr. Bert Vogelstein (John Hopkins University School of Medicine) and were maintained similarly to wild-type HCT116 cells. In some experiments, carcinoma cells were treated with 5-aza (EMD Biosciences, La Jolla, Calif.) every 24 hr for the indicated number of days.
Immunoblot analysis. For the detection of Dnmt1, Dnmt3b and actin, whole cell lysates were prepared as previously described (Smith, J. M., Johanesen, P. A., Wendt, M. K., Binion, D. G., and Dwinell, M. B. (2005). CXCL12 activation of CXCR4 regulates mucosal host defense through stimulation of epithelial cell migration and promotion of intestinal barrier integrity. Am. J. Physiol Gastrointest. Liver Physiol 288, 316-26), and 10 or 25 μg of protein size separated using reducing SDS-PAGE. Equal protein loading was confirmed by Coomassie blue staining. […]

[3] = system: CXCL12 mRNA expression; experiment: RT-PCR analysis of CXCL12 and CXCR4 mRNA in 5-aza-treated colonic carcinoma cells; assay type: cell-based, human; settings: for CXCL12 mRNA expression: indicated concentrations for five days
Source text: as §1
RT-PCR analysis. Total RNA was isolated from cultured cells and colonic crypt epithelium using TRIzol reagent (Invitrogen, Carlsbad, Calif.), DNase treated (Ambion, Austin, Tex.) and 2 μg of total RNA was converted to cDNA via reverse transcription using random priming in a 40 μl volume. CXCL12, CXCR4, and β-actin mRNA transcripts were amplified using previously described PCR primers and conditions (Heidemann, J., et al. (2004) Am. J. Physiol Gastrointest. Liver Physiol 286, G1059-G1068; Smith, J. M., et al. (2005) Am. J. Physiol Gastrointest. Liver Physiol 288, 316-26). Other PCR analyses were conducted using listed primer pairs and conditions (Table S1). […] in cDNA synthesis reactions as a negative control.

[4] = system: CXCL12 promoter; experiment: Methylation-specific PCR of the CXCL12 promoter in 5-aza-treated cells; assay type: cell-based, human
Protocol: Methylation Specific PCR and Bisulphite Sequencing PCR. Genomic DNA from cell lines and colonic crypt preparations was isolated using the Genomic DNA wizard kit (Promega, Madison, Wis.) or TRIzol according to the manufacturer's instructions. […] DNA (2 μg) was denatured in 0.3M NaOH at 42° C. for 20 min in a 111 μl reaction volume. To this 1.2 ml of sodium bisulphite solution (4.5M NaHSO3, 0.02M hydroquinone, and pH 5.0) was added and incubated 16 hrs at 55° C. This reaction was desalted using DNA Purification Wizard (Promega) and the DNA was desulfonated in 0.3M NaOH at 37° C. for 20 min. The converted DNA was precipitated at −20° C., overnight in 75% ethanol containing 0.7M ammonium acetate and 0.05 mg/ml of glycogen, reconstituted in 50 μl of water, and 4.0 μl used in each 50 μl PCR reaction using 0.5 μM of specific MSP primers (Table S1).

[5] = system: CXCR4-expressing U937 monocytic cells; experiment: Leukocyte chemotaxis assay (Transwell, U937 monocytes over epithelial monolayers); assay type: cell-based, human
Protocol: Leukocyte chemotaxis assay. HT29 or HCT116 cells were plated and grown to confluence in 24-well dishes. Cells were then serum starved for 2 days. Calcein-AM (Molecular Probes) loaded U937 monocytes (5×10^5) were plated to the upper well of a Transwell chemotaxis chamber (5 μm pore size, Corning Costar, Corning, N.Y.), with the serum-starved epithelial monolayers in the bottom chamber. U937-epithelial co-cultures were supplemented with the CXCR4 receptor antagonist AMD3100 (5 μg/ml) or remain untreated as a control. U937 cells were incubated without epithelial cells or, as a separate control, epithelial cells alone, were used to establish constitutive chemotaxis or auto-fluorescence respectively. U937 cells were incubated with epithelial cells for 3 hr and the number of migrated calcein-loaded monocytes in the bottom chamber quantified by fluorescence spectroscopy (Victor Wallac, Perkin Elmer).

T1 sequence (P26358 whole entry): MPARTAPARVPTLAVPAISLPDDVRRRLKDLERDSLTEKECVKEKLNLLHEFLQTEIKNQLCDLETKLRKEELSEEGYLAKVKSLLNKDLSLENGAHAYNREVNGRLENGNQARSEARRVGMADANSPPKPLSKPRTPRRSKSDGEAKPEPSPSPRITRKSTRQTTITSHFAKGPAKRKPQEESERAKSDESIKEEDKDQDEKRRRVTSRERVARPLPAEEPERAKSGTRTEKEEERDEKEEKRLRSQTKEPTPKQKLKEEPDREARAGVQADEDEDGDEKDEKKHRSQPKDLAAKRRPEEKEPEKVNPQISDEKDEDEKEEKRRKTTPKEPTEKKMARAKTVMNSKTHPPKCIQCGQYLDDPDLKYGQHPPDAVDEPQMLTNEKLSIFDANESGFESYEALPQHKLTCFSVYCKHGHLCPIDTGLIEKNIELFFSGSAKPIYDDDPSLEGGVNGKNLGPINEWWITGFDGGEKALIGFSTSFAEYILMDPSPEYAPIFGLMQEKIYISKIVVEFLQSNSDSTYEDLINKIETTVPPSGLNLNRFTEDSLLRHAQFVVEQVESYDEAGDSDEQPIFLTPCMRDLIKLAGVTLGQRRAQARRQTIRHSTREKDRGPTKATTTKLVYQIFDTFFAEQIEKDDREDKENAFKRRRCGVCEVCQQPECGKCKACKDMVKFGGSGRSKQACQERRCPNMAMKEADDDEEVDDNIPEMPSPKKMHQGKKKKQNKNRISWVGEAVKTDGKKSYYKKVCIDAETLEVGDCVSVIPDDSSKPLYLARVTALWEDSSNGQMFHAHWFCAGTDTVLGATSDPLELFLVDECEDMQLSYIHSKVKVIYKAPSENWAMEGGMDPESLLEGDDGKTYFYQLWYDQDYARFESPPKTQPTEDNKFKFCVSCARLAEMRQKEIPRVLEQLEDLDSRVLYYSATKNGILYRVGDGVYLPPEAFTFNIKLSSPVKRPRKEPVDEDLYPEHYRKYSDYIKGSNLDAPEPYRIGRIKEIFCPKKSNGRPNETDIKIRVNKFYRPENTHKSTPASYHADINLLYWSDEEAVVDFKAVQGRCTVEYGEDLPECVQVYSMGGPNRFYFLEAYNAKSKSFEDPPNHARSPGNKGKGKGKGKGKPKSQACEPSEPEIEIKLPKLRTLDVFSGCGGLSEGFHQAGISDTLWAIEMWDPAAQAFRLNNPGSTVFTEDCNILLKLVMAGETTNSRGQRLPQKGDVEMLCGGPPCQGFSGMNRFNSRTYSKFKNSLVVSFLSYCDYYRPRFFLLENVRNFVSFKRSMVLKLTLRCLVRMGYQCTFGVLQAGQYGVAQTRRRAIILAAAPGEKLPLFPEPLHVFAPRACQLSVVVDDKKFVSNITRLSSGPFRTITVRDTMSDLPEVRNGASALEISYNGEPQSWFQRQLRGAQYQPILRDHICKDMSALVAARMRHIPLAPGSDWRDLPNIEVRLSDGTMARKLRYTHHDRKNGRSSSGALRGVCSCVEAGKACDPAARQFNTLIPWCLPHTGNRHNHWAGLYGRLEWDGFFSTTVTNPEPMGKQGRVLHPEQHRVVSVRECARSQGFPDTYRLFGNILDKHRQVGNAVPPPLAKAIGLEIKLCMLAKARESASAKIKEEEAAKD

## Nc1ncn([C@H]2C[C@H](O)[C@@H](CO)O2)c(=O)n1 [5-aza, 5-aza-2′-deoxycytidine]
[1]
  CXCL12 protein expression by immunofluorescence: detected
[2]
  extractable levels of Dnmt1: ablated
[3]; Caco2 cells (data not shown)
  CXCL12 gene re-expression: similarly fostered gene re-expression
[3]; HCT116 cells
  CXCL12 mRNA expression: dose-dependently restored
[3]; HT29 and HCT116 cells with 5-aza treatment
  CXCR4 mRNA levels: remained unchanged
[3]; HT29 cells
  CXCL12 mRNA expression: dose-dependently restored
[3]; HT29 or HCT116 cells, 2.5 μM 5-aza for 3-6 days
  time of maximal CXCL12 re-expression: 5 days
[3]; T84 cells (data not shown)
  CXCL12 gene re-expression: similarly fostered gene re-expression
[4]; HCT116 cells, 2.5 μM 5-aza, 3 days
  methylation of the CXCL12 promoter: inhibited
[4]; HT29 cells (data not shown)
  methylation of the CXCL12 promoter: inhibited

## c1cc(CN2CCCNCCNCCCNCC2)ccc1CN1CCCNCCNCCCNCC1 [AMD3100]
[5]; AMD3100 5 μg/ml, 3 hr
  chemotaxis of U937 cells toward CXCL12-expressing HT29 and HCT116 cells: potently blocked migration

## CXCL12: alpha type 7.8 kDa CXC chemokine, here secreted by stably transfected HT29 and HCT116 cells
[5]; CXCL12 secreted from HT29 and HCT116 stable transfectants
  ability to stimulate chemotaxis of U937 cells: functional
